# Data taken from patent US12662469B2 (SIRONAX LTD, priority 2018, dated 2026).
# Test system: Cell Necrosis
# Test: Cell necrosis assay / cell viability assay (necrosis inhibitor activity)
# Format: cell-based
# Conditions: not given
row,SMILES,activity based on the cell activity assay
1,"O=C1COc2cc(F)c(OC3CN(C(=O)N4N=CC[C@H]4c4ccccc4)C3)cc2N1 [Compound 192, (S)-7-fluoro-6-((1-(5-phenyl-4,5-dihydro-1H-pyrazole-1-carbonyl)azetidin-3-yl)oxy)-2H-benzo[b][1,4]oxazin-3(4H)-one]",potent activity

# Same assay, conditions: necrosis inhibitor activity; EC data for 14-191 extrapolated; read-out: EC50
row,SMILES,EC50 [nM]
1,O=C1NCc2cc(OC3CN(C(=O)N4N=CCC4c4cc(F)cc(F)c4)C3)ccc21 (centres unmarked) [Compound 180],1 to 1000
2,"O=C(N1CC(Cc2ccc(F)cc2F)C1)N1N=CCC1c1cccc(F)c1 (centres unmarked) [Compound 53, (3-(2,4-difluorobenzyl)azetidin-1-yl)(5-(3-fluorophenyl)-4,5-dihydro-1H-pyrazol-1-yl)methanone]",1 to 1000
3,O=C(N1CC(Oc2ccc(F)cc2)C1)N1N=CC[C@H]1c1cc(F)cc(F)c1 [Compound 143],1 to 1000
4,"C[C@H]1CN(c2ncc(F)cn2)CCN1C(=O)N1N=CC[C@@H]1c1cccc(F)c1 [Compound 117B, ((R)-5-(3-fluorophenyl)-4,5-dihydro-1H-pyrazol-1-yl)((S)-4-(5-fluoropyrimidin-2-yl)-2-methylpiperazin-1-yl)methanone]",1 to 1000
5,"O=C(N1CC(Cc2ccc(F)cc2)C1)N1OCC[C@H]1c1ccccc1 [Compound 79, (S)-(3-(4-fluorobenzyl)azetidin-1-yl)(3-phenylisoxazolidin-2-yl)methanone]",1 to 1000
6,O=C(NC1CCN(c2ncccn2)C1)N1N=CCC1c1ccccc1 (centres unmarked) [Compound 22],1000 to 10000
7,CNC(=O)c1cccc(OC2CN(C(=O)N3N=CCC3c3cc(F)cc(F)c3)C2)c1Cl (centres unmarked) [Compound 164],1 to 1000
8,NC(=O)c1cc(OC2CN(C(=O)N3N=CCC3c3cc(F)cc(F)c3)C2)ccc1Cl (centres unmarked) [Compound 158],1 to 1000
9,"CC(c1ccccc1)C1CN(C(=O)N2N=CCC2c2ccccc2)C1 (centres unmarked) [Compound 124, (5-phenyl-4,5-dihydro-1H-pyrazol-1-yl)(3-(1-phenylethyl)azetidin-1-yl)methanone]",1000 to 10000
10,"O=C(N1CCC(Cc2ccccc2)C1)N1N=CCC1c1ccccc1 (centres unmarked) [Compound 17, (3-benzylpyrrolidin-1-yl)(5-phenyl-4,5-dihydro-1H-pyrazol-1-yl)methanone]",1 to 1000
11,"O=C(N1CCN(c2ncc(F)cn2)CC1)N1N=CCC1c1ccccc1 (centres unmarked) [Compound 83, (4-(5-fluoropyrimidin-2-yl)piperazin-1-yl)(5-phenyl-4,5-dihydro-1H-pyrazol-1-yl)methanone]",1 to 1000
12,"O=C(c1ccco1)N1CCN(C(=O)N2N=CCC2c2ccccc2)CC1 (centres unmarked) [Compound 94, (4-(furan-2-carbonyl)piperazin-1-yl)(5-phenyl-4,5-dihydro-1H-pyrazol-1-yl)methanone]",1000 to 10000
13,"O=C(N1CC(=Cc2ccc(F)cc2)C1)N1N=CCC1c1ccccc1 (centres unmarked) [Compound 46, (3-(4-fluorobenzylidene)azetidin-1-yl)(5-phenyl-4,5-dihydro-1H-pyrazol-1-yl)methanone]",1 to 1000
14,"O=C(N1CC(=Cc2cccc(F)c2)C1)N1N=CCC1c1ccccc1 (centres unmarked) [Compound 45, (3-(3-fluorobenzylidene)azetidin-1-yl)(5-phenyl-4,5-dihydro-1H-pyrazol-1-yl)methanone]",1 to 1000
15,"C[C@@H]1CN(c2ncc(F)cn2)CCN1C(=O)N1N=CCC1c1ccccc1 (stereo partly drawn) [Compound 114A, ((R)-4-(5-fluoropyrimidin-2-yl)-2-methylpiperazin-1-yl)(5-phenyl-4,5-dihydro-1H-pyrazol-1-yl)methanone]",1 to 1000
16,"O=C(C1CC1)N1CCN(C(=O)N2N=CCC2c2ccccc2)CC1 (centres unmarked) [Compound 93, (4-(cyclopropanecarbonyl)piperazin-1-yl)(5-phenyl-4,5-dihydro-1H-pyrazol-1-yl)methanone]",1000 to 10000
17,"O=C(N1CC(Oc2ccc(O)cc2)C1)N1N=CCC1c1ccccc1 (centres unmarked) [Compound 70, (3-(4-hydroxyphenoxy)azetidin-1-yl)(5-phenyl-4,5-dihydro-1H-pyrazol-1-yl)methanone]",1000 to 10000

# Same assay, conditions: necrosis inhibitor activity; compounds outside 14-191; read-out: EC50
row,SMILES,EC50 [nM]
1,"N#Cc1cc(OC2CN(C(=O)N3N=CC[C@H]3c3cc(F)cc(F)c3)C2)ncn1 [Compound 215, (S)-6-((1-(5-(3,5-difluorophenyl)-4,5-dihydro-1H-pyrazole-1-carbonyl)115zetidine-3-yl)oxy)pyrimidine-4-carbonitrile]",1 to 1000
2,"O=C1Cc2ccc(OC3CN(C(=O)N4N=CCC4c4cc(F)cc(F)c4)C3)cc2N1 (centres unmarked) [Compound 224, 6-((1-(5-(3,5-difluorophenyl)-4,5-dihydro-1H-pyrazole-1-carbonyl)azetidin-3-yl)oxy)indolin-2-one]",1 to 1000
3,"CNC(=O)c1ccc(OC2CN(C(=O)N3N=CC[C@H]3c3cc(F)cc(F)c3)C2)cc1 [Compound 218, (S)-4-((1-(5-(3,5-difluorophenyl)-4,5-dihydro-1H-pyrazole-1-carbonyl)azetidin-3-yl)oxy)-N-methylbenzamide]",1 to 1000
4,"CC1Oc2ccc(OC3CN(C(=O)N4N=CC[C@H]4c4cc(F)cc(F)c4)C3)cc2NC1=O (stereo partly drawn) [Compound 353, 6-((1-((S)-5-(3,5-difluorophenyl)-4,5-dihydro-1H-pyrazole-1-carbonyl)azetidin-3-yl)oxy)-2-methyl-2H-benzo[b][1,4]oxazin-3(4H)-one]",1 to 1000
5,COCCC1Oc2cc(F)c(OC3CN(C(=O)N4N=CC[C@H]4c4cc(F)cc(F)c4)C3)cc2N(C)C1=O (some centres unmarked) [Compound 247],1 to 1000
6,"O=C1COc2cc(F)c(OC3CN(C(=O)N4N=CC[C@H]4c4ccccc4)C3)cc2N1 [Compound 192, (S)-7-fluoro-6-((1-(5-phenyl-4,5-dihydro-1H-pyrazole-1-carbonyl)azetidin-3-yl)oxy)-2H-benzo[b][1,4]oxazin-3(4H)-one]",1 to 1000
7,"COc1nc(O[C@@H]2CCN(C(=O)N3N=CC[C@H]3c3cc(F)cc(F)c3)C2)ncc1F [Compound 363, ((S)-5-(3,5-difluorophenyl)-4,5-dihydro-1H-pyrazol-1-yl)((R)-3-((5-fluoro-4-methoxypyrimidin-2-yl)oxy)pyrrolidin-1-yl)methanone]",1 to 1000
8,O=C(N1CC(Oc2nc(Cl)ncc2F)C1)N1N=CC[C@H]1c1cc(F)cc(F)c1 [Compound 267],1 to 1000
9,"O=C(N1CC(=Cc2ccc(F)nc2)C1)N1N=CCC1c1cc(F)cc(F)c1 (centres unmarked) [Compound 305, (5-(3,5-difluorophenyl)-4,5-dihydro-1H-pyrazol-1-yl)(3-((6-fluoropyridin-3-yl)methylene)azetidin-1-yl)methanone]",1 to 1000
10,"O=C(N1CC(=Cc2cc3[nH]nc(F)c3cc2F)C1)N1N=CC[C@H]1c1cc(F)cc(F)c1 [Compound 301, (S)-(3-((3,5-difluoro-1H-indazol-6-yl)methylene)azetidin-1-yl)(5-(3,5-difluorophenyl)-4,5-dihydro-1H-pyrazol-1-yl)methanone]",1 to 1000
11,"Nc1cccc(OC2CN(C(=O)N3N=CCC3c3cc(F)cc(F)c3)C2)c1 (centres unmarked) [Compound 229, (3-(3-aminophenoxy)azetidin-1-yl)(5-(3,5-difluorophenyl)-4,5-dihydro-1H-pyrazol-1-yl)methanone]",1 to 1000
12,"NC(=O)CC[C@@H]1Oc2cc(F)c(OC3CN(C(=O)N4N=CC[C@H]4c4cc(F)cc(F)c4)C3)cc2NC1=O [Compound 245, 3-((S)-6-((1-((S)-5-(3,5-difluorophenyl)-4,5-dihydro-1H-pyrazole-1-carbonyl)azetidin-3-yl)oxy)-7-fluoro-3-oxo-3,4-dihydro-2H-benzo[b][1,4]oxazin-2-yl)propanamide]",1 to 1000
13,"CCC1Oc2cc(F)c(OC3CN(C(=O)N4N=CC[C@H]4c4cc(F)cc(F)c4)C3)cc2NC1=O (stereo partly drawn) [Compound 250, 6-((1-((S)-5-(3,5-difluorophenyl)-4,5-dihydro-1H-pyrazole-1-carbonyl)azetidin-3-yl)oxy)-2-ethyl-7-fluoro-2H-benzo[b][1,4]oxazin-3(4H)-one]",1 to 1000
14,"CNC(=O)c1cc2sc(OC3CN(C(=O)N4N=CC[C@H]4c4cc(F)cc(F)c4)C3)nc2[nH]1 [Compound 258, (S)-2-((1-(5-(3,5-difluorophenyl)-4,5-dihydro-1H-pyrazole-1-carbonyl)azetidin-3-yl)oxy)-N-methyl-4H-pyrrolo[2,3-d]thiazole-5-carboxamide]",1 to 1000
15,"N#Cc1cc(F)cc(OC2CN(C(=O)N3N=CC[C@H]3c3cc(F)cc(F)c3)C2)c1 [Compound 237, (S)-3-((1-(5-(3,5-difluorophenyl)-4,5-dihydro-1H-pyrazole-1-carbonyl)azetidin-3-yl)oxy)-5-fluorobenzonitrile]",1 to 1000
16,"O=C(N1CC(Oc2ccc(OCc3ccccc3)cc2)C1)N1N=CC[C@H]1c1cc(F)cc(F)c1 [Compound 214, (S)-(3-(4-(benzyloxy)phenoxy)zetidine-1-yl)(5-(3,5-difluorophenyl)-4,5-dihydro-1H-pyrazol-1-yl)methanone]",1 to 1000
17,Nc1ccc(F)c(C=C2CN(C(=O)N3N=CC[C@H]3c3cc(F)cc(F)c3)C2)n1 [Compound 244],1 to 1000
18,"N#Cc1ccnc(N2CCN(C(=O)N3N=CC[C@H]3c3cc(F)cc(F)c3)CC2)c1 [Compound 232, (S)-2-(4-(5-(3,5-difluorophenyl)-4,5-dihydro-1H-pyrazole-1-carbonyl)piperazin-1-yl)isonicotinonitrile]",1 to 1000
19,"O=C(N1CC(Oc2ncc(F)cc2F)C1)N1N=CCC1c1cc(F)cc(F)c1 (centres unmarked) [Compound 210, (5-(3,5-difluorophenyl)-4,5-dihydro-1H-pyrazol-1-yl)(3-((3,5-difluoropyridin-2-yl)oxy)azetidin-1-)methanone]",1 to 1000
20,"O=C1COc2ccc(OC3CN(C(=O)N4N=CC[C@H]4c4ccccc4)C3)cc2N1 [Compound 199, (S)-6-((1-(5-phenyl-4,5-dihydro-1H-pyrazole-1-carbonyl)azetidin-3-yl)oxy)-2H-benzo[b][1,4]oxazin-3(4H)-one]",1 to 1000
21,"O=C(N1CC(=Cc2cc3[nH]nc(F)c3cc2F)C1)N1N=CCC1c1ccccc1 (centres unmarked) [Compound 296, (3-((3,5-difluoro-1H-indazol-6-yl)methylene)azetidin-1-yl)(5-phenyl-4,5-dihydro-1H-pyrazol-1-yl)methanone]",1 to 1000
22,"O=C(N1CC(=Cc2ccc(F)cc2)C1)N1N=CCC1c1cc(F)cc(F)c1 (centres unmarked) [Compound 306, (5-(3,5-difluorophenyl)-4,5-dihydro-1H-pyrazol-1-yl)(3-(4-fluorobenzylidene)azetidin-1-yl)methanone]",1 to 1000
23,"NC(=O)c1cc(OC2CN(C(=O)N3N=CC[C@H]3c3cc(F)cc(F)c3)C2)c(F)cc1F [Compound 239, (S)-5-((1-(5-(3,5-difluorophenyl)-4,5-dihydro-1H-pyrazole-1-carbonyl)azetidin-3-yl)oxy)-2,4-difluorobenzamide]",1 to 1000
